Assay results taken from US20080220499A1, “NOVEL PROTEASE FOR INDUSTRIAL APPLICATIONS” (priority 2006, published 2008).

Assays:
Assay type in all cases: biochemical
[1] = system: protease isolated from Pseudomonas aeruginosa MCM B-327; assay: Effect of organic solvents on protease activity; details: for Enzyme activity: organic solvent 50% v/v, 30 min of incubation, Tris-HCl pH 8.0, 37° C., None = 42.77; for inhibition of the enzyme: 50% v/v, after 30 min of incubation
Experimental: The cell free supernatant was salt precipitated and used for this study in Tris-HCl buffer, pH 8.0 at 37° C.

[2] = system: protease isolated from Pseudomonas aeruginosa MCM B-327; assay: Effect of metal ions on protease activity; details: Tris-HCl pH 8.0, 37° C.; for Enzyme activity: None = 42.77
Experimental: (§1) This example illustrates the effect of metal ions on activity of the protease isolated from Pseudomonas aeruginosa MCM B-327 when grown in soybean meal−tryptone (HiMedia) medium. The cell free supernatant was salt precipitated and used for this study in Tris-HCl buffer, pH 8.0 at 37° C.

[3] = system: protease isolated from Pseudomonas aeruginosa MCM B-327; assay: Effect of inhibitors on protease activity; details: for Enzyme activity: incubated 30 min, None = 42.77
Experimental: as §1, with “inhibitors” for “metal ions”, “C. The enzyme and the inhibitor were incubated for 30 min prior to enzyme assay.” for “C.”

[4] = system: protease isolated from Pseudomonas aeruginosa MCM B-327; assay: Effect of ingredients of detergents on protease activity; details: for Enzyme activity: incubated 30 min prior to assay, Tris-HCl pH 8.0, 37° C., None = 42.77; for effect of surfactant on protease activity (in words): 1%
Experimental: as §1, with “ingredients of detergents” for “metal ions”, “C. The enzyme and ingredients of detergent were incubated for 30 min prior to enzyme assay. The enzyme was stable in detergent ingredients while 20% inhibited by SDS.” for “C.”

[5] = inhibitor 1 mM, Tris-HCl pH 8.0, 37° C.

Compound | Enzyme activity [1] | effect of metal ion on enzyme activity (in words) [2] | Enzyme activity ([2]; metal ion at 5 mM) | also measured
CCCCC=O [1-pentanone] | 11.54 U/mg precipitate | – | – | –
CC(C)=O [Acetone] | 13.68 U/mg precipitate | – | – | –
c1ccccc1 [Benzene] | 11.54 U/mg precipitate | – | – | –
[Ca+2].[Cl-].[Cl-] [CaCl2] | – | resistant to inhibition | 42.34 U/mg precipitate | –
O=S(=O)([O-])[O-].[Cu+2] [CuSO4] | – | affected the enzyme activity considerably | 10.69 U/mg precipitate | –
O[C@@H](CS)[C@@H](O)CS [DTT, dithiothretol] | – | – | – | inhibition of the enzyme (in words) ([3]; 1 & 5 mM): completely inhibited; Enzyme activity [3, 5]: 0 U/mg precipitate; Enzyme activity ([3]; inhibitor 5 mM): 0 U/mg precipitate
O=C(O)CN(CCN(CC(=O)O)CC(=O)O)CC(=O)O [EDTA, Ethylenediamine tetra acetic acid] | – | – | – | Enzyme activity ([3]; inhibitor 2 mM): 32.93 U/mg precipitate; Enzyme activity ([3]; inhibitor 5 mM): 30.36 U/mg precipitate
CCO [Ethanol] | 3.84 U/mg precipitate | – | – | inhibition of the enzyme [1]: 91%
O=S(=O)([O-])[O-].[Fe+2] [FeSO4] | – | resistant to inhibition | 37.64 U/mg precipitate | –
[Cl][Hg][Cl] [HgCl2] | – | affected the enzyme activity considerably | 6.84 U/mg precipitate | Enzyme activity ([2]; HgCl2 at 1 mM): 9.83 U/mg precipitate
NC(=O)CI [Iodoacetamide] | – | – | – | Enzyme activity [3, 5]: 44.05 U/mg precipitate; Enzyme activity ([3]; inhibitor 5 mM): 43.62 U/mg precipitate
CC(C)CC(C)(C)C [Isooctane] | 28.65 U/mg precipitate | – | – | –
CO [Methanol] | 14.11 U/mg precipitate | – | – | –
O=S(=O)([O-])[O-].[Mg+2] [MgSO4] | – | resistant to inhibition | 42.77 U/mg precipitate | –
O=S(=O)([O-])[O-].[Mn+2] [MnSO4] | – | resistant to inhibition | 37.21 U/mg precipitate | –
[Cl-].[Na+] [NaCl] | – | resistant to inhibition | 41.06 U/mg precipitate | –
O=S(=O)(F)Cc1ccccc1 [PMSF, Phenyl methyl sulphonyl fluoride] | – | – | – | Enzyme activity [3, 5]: 40.20 U/mg precipitate; Enzyme activity ([3]; inhibitor 5 mM): 31.65 U/mg precipitate
CCCCCCCCCCCCOS(=O)(=O)[O-].[Na+] [SDS] | – | – | – | inhibition of the enzyme ([4]; detergent ingredient 1%, 30 min): 20%; Enzyme activity ([4]; detergent ingredient 1%): 34.21 U/mg precipitate
O=P(O)(O)OP(=O)(O)OP(=O)(O)O [Sodium tripolyphosphate] | – | – | – | Enzyme activity ([4]; detergent ingredient 1%): 44.05 U/mg precipitate
Cc1ccccc1 [Toluene] | 20.95 U/mg precipitate | – | – | inhibition of the enzyme [1]: 51%
CCCCCCCC/C=C\CCCCCCCC(=O)OCCOCC(OCCO)C1OCC(OCCO)C1OCCO (centres unmarked) [Tween 80] | – | – | – | effect of surfactant on protease activity (in words) ([4]; 30 min): no inhibitory effect; Enzyme activity ([4]; detergent ingredient 1%): 43.62 U/mg precipitate
O=S(=O)([O-])[O-].[Zn+2] [ZnSO4] | – | affected the enzyme activity considerably | 12.40 U/mg precipitate | –
CCCCCC [n-hexane] | 26.94 U/mg precipitate | – | – | –
Triton X100 | – | – | – | effect of surfactant on protease activity (in words) ([4]; 30 min): no inhibitory effect; Enzyme activity ([4]; detergent ingredient 1%): 41.49 U/mg precipitate
m-p-xylene | 28.65 U/mg precipitate | – | – | –
